Type in all cases: cell-based
One test has as its system Alternaria tenuis. Briefly: Fungistatical effect of β-cyclodextrin (agar, colony diameter). As to conditions: Alternaria alternata. On the procedure:
(§1) The fungistatical activity of cyclodextrins has never been disclosed in prior art.
(§2) Agar nutrient media comprising 0.1-0.2 -0.5-1.0-2.0-5.0-10.0-20.0-100.0- 200.0-400.0-800.0-1200.0-1500.0-2000.0-3000.0 μg β-cyclodextrin/ml, respectively, are prepared in Petri-dishes. Mycelium discs are cut out from surface cultures of three test fungi and are placed onto the agar nutrient media in the Petri-dishes. Incubation is carried out in a thermostate whereupon the increase of the diameter of the colonies is determined and compared to that of the control. The morphology of the colonies and the diffusion of the dye-substance produced by the fungi into the nutrient medium are evaluated as well.
(§3) The fungistatical effect of cyclodextrin manifests itself in the changed morphology, structure and color of the colonies and in the amount of the dyestuff penetrated into the nutrient medium. However at higher dose range the effect of cyclodextrin is already of a quantitative nature, thus the decrease of the diameter of the colonies can be measured and the amount of the biomass formed is reduced to a rate which can be evaluated (Table 1).

A further test has as its system Rhizoctonia solani. The description is as above. On the procedure: as §1, §2, §3
A further test has as its system Sclerotinia sclerotiorum. Described as above. The protocol:
as §1, §2, §3

In a further test the test system is three test fungi. Description: Fungistatical effect of β-cyclodextrin, morphology and surfacial cultures. As to conditions: surfacial cultures. On the procedure:
as §2, §3

SMILES strings stand for the structures.

This note sets out measurements from US4923853A, “Process for enhancing the activity of plant protecting agents by using cyclodextrin” (Chinoin Gyogyszer Es Vegyeszeti Termekek Gyara R.T., priority 1985, dated 1990).

Consider `OC[C@H]1O[C@@H]2O[C@H]3[C@H](O)[C@@H](O)[C@@H](O[C@H]4[C@H](O)[C@@H](O)[C@@H](O[C@H]5[C@H](O)[C@@H](O)[C@@H](O[C@H]6[C@H](O)[C@@H](O)[C@@H](O[C@H]7[C@H](O)[C@@H](O)[C@@H](O[C@H]8[C@H](O)[C@@H](O)[C@@H](O[C@H]1[C@H](O)[C@H]2O)O[C@@H]8CO)O[C@@H]7CO)O[C@@H]6CO)O[C@@H]5CO)O[C@@H]4CO)O[C@@H]3CO` [β-cyclodextrin], for which the figures for the inhibition at 200 µg/mL with Alternaria tenuis (β-cyclodextrin 200 μg/ml), in the test with Rhizoctonia solani (β-cyclodextrin 200 μg/ml) and in the test with Sclerotinia sclerotiorum (β-cyclodextrin 200 μg/ml) were 7%, 3% and 12%, respectively. In addition, the values for the inhibition at 400 µg/mL in the test with Alternaria tenuis (β-cyclodextrin 400 μg/ml), in the test on Rhizoctonia solani (β-cyclodextrin 400 μg/ml) and in the test with Sclerotinia sclerotiorum (β-cyclodextrin 400 μg/ml) were 10%, 6% and 12%, respectively. The figures for the inhibition at 1500 µg/mL in the test with Alternaria tenuis (β-cyclodextrin 1500 μg/ml), in the test with Rhizoctonia solani (β-cyclodextrin 1500 μg/ml) and with Sclerotinia sclerotiorum (β-cyclodextrin 1500 μg/ml) were 12%, 17% and 14%, respectively. Besides, the results for the inhibition at 3000 µg/mL with Alternaria tenuis (β-cyclodextrin 3000 μg/ml), in the test with Rhizoctonia solani (β-cyclodextrin 3000 μg/ml) and in the test with Sclerotinia sclerotiorum (β-cyclodextrin 3000 μg/ml) were 14%, 19% and 16%, respectively. For the same compound, in the test with three test fungi, the “formation of the propagative organs” value is listed as “inhibits the formation of the propagative organs”.
